Article PMC3914206

Assays:
panel of 442 kinases [1] = target: T1, panel of 442 kinases (Homo sapiens, UniProt P54760); format: binding; settings: Compound Concentration 10 µM
T1 construct: purchased KINOMEscan
T1 sequence (P54760 16-987): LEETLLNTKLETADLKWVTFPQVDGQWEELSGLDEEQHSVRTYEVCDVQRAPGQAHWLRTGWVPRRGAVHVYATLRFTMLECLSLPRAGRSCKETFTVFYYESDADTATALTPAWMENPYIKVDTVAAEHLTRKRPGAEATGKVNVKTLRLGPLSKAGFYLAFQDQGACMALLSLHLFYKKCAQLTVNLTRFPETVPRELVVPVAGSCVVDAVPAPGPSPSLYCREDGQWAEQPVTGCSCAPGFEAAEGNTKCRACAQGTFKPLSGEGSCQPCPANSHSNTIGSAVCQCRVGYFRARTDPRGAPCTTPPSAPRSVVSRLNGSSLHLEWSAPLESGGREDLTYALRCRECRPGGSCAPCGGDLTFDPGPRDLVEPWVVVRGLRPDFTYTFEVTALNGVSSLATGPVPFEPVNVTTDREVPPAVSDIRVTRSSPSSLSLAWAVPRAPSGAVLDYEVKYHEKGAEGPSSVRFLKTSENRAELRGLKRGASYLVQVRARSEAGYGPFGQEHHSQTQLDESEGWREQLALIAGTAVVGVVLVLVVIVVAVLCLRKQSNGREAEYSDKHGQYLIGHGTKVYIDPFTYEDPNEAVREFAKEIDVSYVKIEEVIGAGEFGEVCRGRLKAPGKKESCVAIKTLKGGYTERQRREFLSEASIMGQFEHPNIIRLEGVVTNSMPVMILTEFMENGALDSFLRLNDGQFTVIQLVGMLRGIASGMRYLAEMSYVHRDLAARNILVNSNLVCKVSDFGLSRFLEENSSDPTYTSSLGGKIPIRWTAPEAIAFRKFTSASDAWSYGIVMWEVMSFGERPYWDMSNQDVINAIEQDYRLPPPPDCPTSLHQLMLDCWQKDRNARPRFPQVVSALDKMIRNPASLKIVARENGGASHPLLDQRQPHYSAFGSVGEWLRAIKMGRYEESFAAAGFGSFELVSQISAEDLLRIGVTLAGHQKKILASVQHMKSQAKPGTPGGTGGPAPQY
From the text: (§1) We assessed the selectivity of members of this scaffold using the KINOMEscan methodology across a near comprehensive panel of 442 kinases [[18,27]].

panel of 442 kinases [2] = target: T2, panel of 442 kinases (Homo sapiens, UniProt Q9Y2U5); format: binding; settings: Compound Concentration 10 µM
T2 construct: purchased KINOMEscan
T2 sequence (Q9Y2U5 1-619): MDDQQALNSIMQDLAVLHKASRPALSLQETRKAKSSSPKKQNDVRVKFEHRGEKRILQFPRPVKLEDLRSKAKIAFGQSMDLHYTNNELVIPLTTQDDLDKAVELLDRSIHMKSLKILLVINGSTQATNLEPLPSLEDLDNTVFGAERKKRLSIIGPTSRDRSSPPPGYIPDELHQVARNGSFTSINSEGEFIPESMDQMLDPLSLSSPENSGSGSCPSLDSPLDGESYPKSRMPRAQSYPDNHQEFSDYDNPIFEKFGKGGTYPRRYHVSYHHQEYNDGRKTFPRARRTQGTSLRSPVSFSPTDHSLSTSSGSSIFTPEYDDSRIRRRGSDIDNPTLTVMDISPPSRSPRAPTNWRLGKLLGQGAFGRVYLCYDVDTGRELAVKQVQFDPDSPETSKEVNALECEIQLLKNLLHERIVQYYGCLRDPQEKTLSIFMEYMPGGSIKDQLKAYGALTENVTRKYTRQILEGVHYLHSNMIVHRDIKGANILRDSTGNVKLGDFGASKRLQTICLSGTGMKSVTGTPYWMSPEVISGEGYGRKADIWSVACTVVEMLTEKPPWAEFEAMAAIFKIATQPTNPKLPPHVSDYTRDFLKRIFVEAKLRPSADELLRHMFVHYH
From the text: as §1

SMILES	KINOMEscan: EPHB4 (panel of 442 kinases [1])	KINOMEscan: MAP3K2 (panel of 442 kinases [2])
COc1cc(C(=O)N2CCC(N3CCN(C)CC3)CC2)ccc1Nc1ncc2c(n1)N(C1CCCC1)c1ccccc1C(=O)N2C [Compound 25, 11-cyclopentyl-2-((2-methoxy-4-(4-(4-methylpiperazin-1-yl)piperidine-1-carbonyl)phenyl)amino)-5-methyl-5H-benzo[e]pyrimido[5,4-b][1,4]diazepin-6(11H)-one]	100	90
CCOc1cc(C(=O)N2CCC(N3CCN(C)CC3)CC2)ccc1Nc1ncc2c(n1)N(C1CCCC1)c1ccccc1C(=O)N2C [Compound 26]	100	100
COc1cc(C(=O)N2CCC(N3CCN(C)CC3)CC2)ccc1Nc1ncc2c(n1)N(C)c1ccccc1C(=O)N2C [15 (LRRK2-IN-1)]	100	97
